These results are taken from PubChem BioAssay (NCI).

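All cell lines were grown in 96-well plates and treated with compound for 48 hours. GI50 is the concentration that inhibits growth by half. TGI denotes the concentration required for complete inhibition of growth.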

Some test systems named below: NCI-H23 lung; RPMI-8226 leukemia; UACC-257 melanoma; RXF 393 renal; SW-620 colon; NCI/ADR-RES ovarian; HOP-92 NSCLC; SF-268 CNS; HL-60(TB) leukemia; MALME-3M melanoma.
Common to all, as to assay: NCI anticancer screen, dose series, 48 h

Turning to `CO/N=C(\C)COc1ccc2c(=O)c(-c3ccccc3)coc2c1`, the GI50 in the experiment with NCI-H23 lung is 26.4 µM; with RPMI-8226 leukemia it was over 100 µM; in the experiment with UACC-257 melanoma, 25.6 µM; in the experiment with RXF 393 renal, 27.1 µM; in the experiment with SW-620 colon, over 100 µM; in the experiment with NCI/ADR-RES ovarian it was 14.5 µM. In addition, the GI50 was 17.2 µM with HOP-92 NSCLC, 24.5 µM in the experiment on SF-268 CNS and 37.7 µM with HL-60(TB) leukemia. Moreover, the TGI in the experiment on NCI-H23 lung was 89 µM; in the experiment on RPMI-8226 leukemia, over 100 µM; in the experiment with UACC-257 melanoma it was 97.3 µM; in the experiment with RXF 393 renal it was 57.8 µM; in the experiment with SW-620 colon, over 100 µM; in the experiment on NCI/ADR-RES ovarian it was 50 µM. The values for the TGI in the experiment with HOP-92 NSCLC, in the experiment on SF-268 CNS and in the experiment on HL-60(TB) leukemia were 43.9 µM, 71 µM and over 100 µM, respectively.

For the compound `CCOC(=O)C(O)(NC(=O)c1ccccc1F)C(F)(F)F` (centres undefined), the TGI with NCI-H23 lung, in the experiment on RPMI-8226 leukemia, in the experiment with UACC-257 melanoma, in the experiment on RXF 393 renal, in the experiment on SW-620 colon and in the experiment with NCI/ADR-RES ovarian was over 100 µM each time. Moreover, the TGI with MALME-3M melanoma, with HOP-92 NSCLC, in the experiment with SF-268 CNS and with HL-60(TB) leukemia was over 100 µM each time.

Turning to `N#Cc1c(N)sc2c1-c1ccccc1OC2`, the TGI in the experiment on NCI-H23 lung is over 100 µM; in the experiment with RPMI-8226 leukemia, over 100 µM; in the experiment with UACC-257 melanoma it was over 100 µM; in the experiment on RXF 393 renal, 41.3 µM; with SW-620 colon, over 100 µM; in the experiment with NCI/ADR-RES ovarian, over 100 µM. In addition, the TGI in the experiment with MALME-3M melanoma was over 100 µM; in the experiment on HOP-92 NSCLC it was over 100 µM; in the experiment with SF-268 CNS, over 100 µM; in the experiment on HL-60(TB) leukemia, 82.1 µM.

For the compound `COc1cc(C2C(C(=O)O)=C(COC(C)=O)Oc3cc4c(cc32)OCO4)cc(OC)c1OC` (centres undefined), the TGI in the experiment with NCI-H23 lung, in the experiment on RPMI-8226 leukemia, in the experiment on UACC-257 melanoma, in the experiment on RXF 393 renal, in the experiment on SW-620 colon and in the experiment on MALME-3M melanoma was over 100 µM each time. Also, the TGI with HL-60(TB) leukemia is over 100 µM.

`CCc1ccc2nc(-c3ccc(O)cc3)sc2c1`: the TGI stood at 34.1 µM with NCI-H23 lung; 35.3 µM with RPMI-8226 leukemia; 35.7 µM in the experiment with UACC-257 melanoma; 38 µM with SW-620 colon; 32.9 µM with NCI/ADR-RES ovarian; 36.8 µM with MALME-3M melanoma. For the same compound, the TGI with SF-268 CNS worked out at 37.8 µM; with HL-60(TB) leukemia it was 10.2 µM.

Take `CN(C)c1ccc(C(Cc2ccc3ccccc3n2)Cc2ccc3ccccc3n2)cc1`: the GI50 in the experiment with RXF 393 renal is 3.48 µM; in the experiment with MALME-3M melanoma, 1.96 µM; in the experiment with HOP-92 NSCLC it was 2.19 µM. Also, the TGI was 9.11 µM with RXF 393 renal, over 100 µM with MALME-3M melanoma and 6.91 µM in the experiment with HOP-92 NSCLC.
